According to patent US8741940B2, “Microbicidal composition” (Rohm and Haas Company, priority 2005, dated 2014):
Counter-ions that a name gives are not always drawn. Like-named read-outs stand apart in the source and are kept apart here.

Columns and labels:
Assay type in all cases: cell-based
[1] = tested on: Escherichia coli (E. coli—ATCC #8739); assay: Synergy test, microtiter plate high resolution MIC assay, bacterium in M9GY medium; parameters: key to SI (synergy index): SI = Qa/QA + Qb/QB; >1 antagonism, lower SI = greater synergy; Qa (First Component A) / Qb (Second Component B): unit: ppm; settings: for MIC: Escherichia coli
Experimental: (§1) When the sum of Qa/QA and Qb/QB is greater than one, antagonism is indicated. […] The lower the SI, the greater the synergy shown by that particular mixture. The minimum inhibitory concentration (MIC) of a microbicide is the lowest concentration tested under a specific set of conditions that prevents the growth of added microorganisms.
(§2) Synergy tests were conducted using standard microtiter plate assays with media designed for optimal growth of the test microorganism. Minimal salt medium supplemented with 0.2% glucose and 0.1% yeast extract (M9GY medium) was used for testing bacteria; Potato Dextrose Broth (PDB medium) was used for testing yeast and mold. In this method, a wide range of combinations of microbicides and other personal care raw materials was tested by conducting high resolution MIC assays in the presence of various concentrations of BBIT or MBIT. High resolution MICs were determined by adding varying amounts of microbicide to one column of a microtitre plate and doing subsequent […] dilutions using an automated liquid handling system to obtain a series of endpoints ranging from 2 ppm to 10,000 ppm active ingredient.
(§3) The bacteria were used at a concentration of about 5 ×10^6 bacteria per mL and the yeast and mold at 5×10^5 fungi per mL. These microorganisms are representative of natural contaminants in many consumer and industrial applications. […] (yeast and mold) or 30° C. (bacteria).
(§4) In each test, First Component (A) was BBIT and the Second Component (B) was the other commercial microbicide.
(§5) In each test, First Component (A) was MBIT and the Second Component (B) was the other commercial microbicide.

[2] = tested on: Candida albicans (C. albicans—ATCC 10231); assay: Synergy test, microtiter plate high resolution MIC assay, yeast in PDB medium; parameters: key to SI (synergy index): SI = Qa/QA + Qb/QB; >1 antagonism, lower SI = greater synergy; Qb (Second Component B) / Qa (First Component A): unit: ppm; settings: for MIC: Candida albicans
Experimental: as §1, §2, §3, §4, §5

[3] = tested on: Aspergillus niger (A. niger—ATCC 16404); assay: Synergy test, microtiter plate high resolution MIC assay, mold in PDB medium; parameters: key to SI (synergy index): SI = Qa/QA + Qb/QB; >1 antagonism, lower SI = greater synergy; Qb (Second Component B) / Qa (First Component A): unit: ppm; settings: for MIC: Aspergillus niger
Experimental: as §1, §2, §3, §4, §5

[4] = ATCC8739, E. coli 8739, M9GY, 24 hours, 30° C., read-out: MIC of the component acting alone (QA / QB)
[5] = ATCC8739, E. coli 8739, M9GY, 24 hours, alone where Qa = 0, otherwise in the mixture, read-out: Qb (concentration of second component producing the end point, MIC)
[6] = C. albicans 10231, PDB, 24 hours
[7] = ATCC10231, C. albicans 10231, PDB, 24 hours, alone where Qa = 0, otherwise in the mixture, read-out: Qb (concentration of second component producing the end point, MIC)
[8] = ATCC16404, 168 h, A. niger 16404, PDB, 7 days, alone where Qa = 0, otherwise in the mixture, read-out: Qb (concentration of second component producing the end point, MIC)
[9] = A=MBIT, B=Benzalkonium chloride (Hyamine 3500), E. coli 8739 - M9GY, 24 hours
[10] = A=MBIT, B=Benzalkonium chloride (Hyamine 3500), C. albicans 10231 - PDB, 24 hours
[11] = A=MBIT, B=Benzalkonium chloride (Hyamine 3500), A. niger 16404 - PDB, 4 days
[12] = A=MBIT, B=Benzyl alcohol, E. coli 8739 - M9GY, 24 hours
[13] = A=MBIT, B=Benzyl alcohol, C. albicans 10231 - PDB, 48 hours
[14] = A=MBIT, B=Benzyl alcohol, A. niger 16404 - PDB, 4 days
[15] = A=MBIT, B=dithio-2,2′-bis(N-methylbenzamide) (DTBMA), E. coli 8739 - M9GY, 24 hours
[16] = A=MBIT, B=dithio-2,2′-bis(N-methylbenzamide) (DTBMA), C. albicans 10231 - PDB, 24 hours
[17] = A=MBIT, B=dithio-2,2′-bis(N-methylbenzamide) (DTBMA), A. niger 16404 - PDB, 3 days

O=C(O)CN(CCN(CC(=O)O)CC(=O)O)CC(=O)O [EDTA, Ethylenediamine tetraacetic acid]
Qb (Second Component B = EDTA) [1]: 40000
SI ([1]; E. coli 8739 - M9GY, 72 hours, BBIT + EDTA): 1.00
Qb (Second Component B = EDTA) [2]: 600
SI ([2]; C. albicans 10231 - PDB, 24 hours, BBIT + EDTA): 1.00
Qb (Second Component B = EDTA) [3]: 1600
SI ([3]; A. niger 16404 - PDB, 7 days, BBIT + EDTA): 1.00

CCOC(=O)c1ccc(O)cc1 [Ethylparaben]
SI (synergy index) ([1]; E. coli 8739, M9GY, 24 hours): 1.00
MIC [1, 4]: 2000 µg/mL
MIC [1, 5]: 2000 µg/mL
SI (synergy index) [2, 6]: 1.00
MIC ([2]; ATCC10231, C. albicans 10231, PDB, 24 hours, 25° C., read-out: MIC of the component acting alone (QA / QB)): 800 µg/mL
MIC [2, 7]: 2000 µg/mL
SI (synergy index) ([3]; A. niger 16404, PDB, 7 days): 1.00
MIC ([3]; ATCC16404, 168 h, A. niger 16404, PDB, 7 days, 25° C., read-out: MIC of the component acting alone (QA / QB)): 800 µg/mL
MIC [3, 8]: 800 µg/mL

CC(C)(C)CC(C)(C)c1ccc(OCCOCC[N+](C)(C)Cc2ccccc2)cc1 [Benzethonium chloride]
Qb (Second Component B) ([1]; A=MBIT, B=Benzethonium chloride (Hyamine 1622), E. coli 8739 - M9GY, 24 hours): 20
Qb (Second Component B) ([2]; A=MBIT, B=Benzethonium chloride (Hyamine 1622), C. albicans 10231 - PDB, 24 hours): 4
Qb (Second Component B) ([3]; A=MBIT, B=Benzethonium chloride (Hyamine 1622), A. niger 16404 - PDB, 4 days): 10

CC(=O)C1C(=O)C=C(C)OC1=O (centres unmarked) [Dehydroacetic acid, sodium salt]
SI (synergy index) ([1]; E. coli 8739, M9GY, 24 hours): 1.00
MIC [1, 5]: 20000 µg/mL
SI (synergy index) [2, 6]: 1.00
MIC [2, 7]: 40 µg/mL
SI (synergy index) ([3]; A. niger 16404, PDB, 7 days): 1.00
MIC [3, 8]: 200 µg/mL

N=C(N)c1ccc(OCCCCCCOc2ccc(C(=N)N)cc2)cc1.O=S(=O)(O)CCO.O=S(=O)(O)CCO [Hexamidine diisethionate]
SI (synergy index) ([1]; E. coli 8739, M9GY, 24 hours): 1.00
Qb (concentration of second component producing the end point, MIC) ([1]; E. coli 8739, M9GY, 24 hours, alone where Qa = 0, otherwise in the mixture): 8 ppm
SI ([1]; E. coli 8739 - M9GY, 48 hours, BBIT + hexamidine diisethionate): 1.00
Qb (Second Component B = Hexamidine diisethionate) ([1]; E. coli 8739 - M9GY, 48 hours, hexamidine diisethionate alone (Qa 0) or in mixture with BBIT): 100
SI (synergy index) [2, 6]: 1.00
Qb (concentration of second component producing the end point, MIC) ([2]; C. albicans 10231, PDB, 24 hours, alone where Qa = 0, otherwise in the mixture): 10 ppm
SI ([2]; C. albicans 10231 - PDB, 24 hours, BBIT + hexamidine diisethionate): 1.00
Qb (Second Component B = Hexamidine diisethionate) ([2]; C. albicans 10231 - PDB, 24 hours, hexamidine diisethionate alone (Qa 0) or in mixture with BBIT): 10

Benzalkonium chloride
Qb (Second Component B) [1, 9]: 10
SI (synergy index) [1, 9]: 1.00
MIC of the component acting alone (QA / QB) ([1]; E. coli 8739, M9GY, 48 hours, 30° C.): 3 ppm
Qb (Second Component B) [2, 10]: 60
SI (synergy index) [2, 10]: 1.00
MIC of the component acting alone (QA / QB) ([2]; C. albicans 10231, PDB, 24 hours, 25° C.): 60 ppm
MIC of the component acting alone (QA / QB) ([3]; A. niger 16404, PDB, 7 days, 25° C.): 200 ppm
Qb (Second Component B) [3, 11]: 200
SI (synergy index) [3, 11]: 1.00

OCc1ccccc1 [Benzyl alcohol]
Qb (Second Component B) [1, 12]: 5000
SI (synergy index) [1, 12]: 1.00
MIC [1, 4]: 2000 µg/mL
Qb (Second Component B) [2, 13]: 4000
SI (synergy index) [2, 13]: 1.00
MIC ([2]; ATCC10231, C. albicans 10231, PDB, 48 hours, 25° C., read-out: MIC of the component acting alone (QA / QB)): 3000 µg/mL
Qb (Second Component B) [3, 14]: 6000
SI (synergy index) [3, 14]: 1.00
MIC ([3]; ATCC16404, 72 h, A. niger 16404, PDB, 3 days, 25° C., read-out: MIC of the component acting alone (QA / QB)): 5000 µg/mL

CCCCC(CC)CN1CN(CC(CC)CCCC)CC(C)(N)C1 (centres unmarked) [Hexetidine]
SI (synergy index) ([1]; E. coli 8739, M9GY, 72 hours): 1.00
SI ([1]; E. coli 8739 - M9GY, 72 hours, BBIT + hexetidine): 1.00
Qb (Second Component B = Hexetidine) ([1]; E. coli 8739 - M9GY, 72 hours, hexetidine alone (Qa 0) or in mixture with BBIT): 200
MIC ([1]; ATCC8739, E. coli 8739, M9GY, 72 hours, alone where Qa = 0, otherwise in the mixture, read-out: Qb (concentration of second component producing the end point, MIC)): 80 µg/mL
SI (synergy index) ([2]; C. albicans 10231, PDB, 72 hours): 1.00
SI ([2]; C. albicans 10231 - PDB, 72 hours, BBIT + hexetidine): 1.00
Qb (Second Component B = Hexetidine) ([2]; C. albicans 10231 - PDB, 72 hours, hexetidine alone (Qa 0) or in mixture with BBIT): 100
MIC ([2]; ATCC10231, C. albicans 10231, PDB, 72 hours, alone where Qa = 0, otherwise in the mixture, read-out: Qb (concentration of second component producing the end point, MIC)): 80 µg/mL
SI (synergy index) ([3]; A. niger 16404, PDB, 3 days): 1.00
SI ([3]; A. niger 16404 - PDB, 4 days, BBIT + hexetidine): 1.00
Qb (Second Component B = Hexetidine) ([3]; A. niger 16404 - PDB, 4 days, hexetidine alone (Qa 0) or in mixture with BBIT): 100
MIC ([3]; ATCC16404, 72 h, A. niger 16404, PDB, 3 days, alone where Qa = 0, otherwise in the mixture, read-out: Qb (concentration of second component producing the end point, MIC)): 200 µg/mL

CCCOC(=O)c1ccc(O)cc1 [Propylparaben]
SI (synergy index) ([1]; E. coli 8739, M9GY, 48 hours): 1.00
SI ([1]; E. coli 8739 - M9GY, 24 hours, BBIT with Propylparaben): 1.00
MIC ([1]; ATCC8739, E. coli 8739, M9GY, 48 hours, alone where Qa = 0, otherwise in the mixture, read-out: Qb (concentration of second component producing the end point, MIC)): 4000 µg/mL
SI (synergy index) [2, 6]: 1.00
SI ([2]; C. albicans 10231 - PDB, 24 hours, BBIT with Propylparaben): 1.00
MIC [2, 7]: 2000 µg/mL
SI (synergy index) ([3]; A. niger 16404, PDB, 7 days): 1.00
SI ([3]; A. niger 16404 - PDB, 7 days, BBIT with Propylparaben): 1.00
MIC [3, 8]: 2000 µg/mL

OCCCCO [Butylene glycol]
Qb (Second Component B) [1]: 20000
SI (synergy index) [1]: 1.00
MIC ([1]; ATCC8739, 48 h, read-out: MIC of the component acting alone (QA / QB)): 20000 µg/mL
Qb (Second Component B) [2]: 20000
SI (synergy index) [2]: 1.00
MIC ([2]; ATCC10231, 24 h, read-out: MIC of the component acting alone (QA / QB)): 20000 µg/mL
Qb (Second Component B) [3]: 10000
SI (synergy index) [3]: 1.00
MIC ([3]; ATCC16404, 72 h, read-out: MIC of the component acting alone (QA / QB)): 10000 µg/mL

O=C(O)CN(CCN(CC(=O)O)CC(=O)O)CC(=O)O [Ethylenediamine tetraacetic acid]
SI (synergy index) [1]: 1.00
MIC ([1]; ATCC8739, 24 h, read-out: Qb (concentration of second component producing the end point, MIC)): 40000 µg/mL
SI (synergy index) [2]: 1.00
MIC ([2]; ATCC10231, 48 h, read-out: Qb (concentration of second component producing the end point, MIC)): 1000 µg/mL
SI (synergy index) [3]: 1.00
MIC ([3]; ATCC16404, 72 h, read-out: Qb (concentration of second component producing the end point, MIC)): 1600 µg/mL

CNC(=O)c1ccccc1SSc1ccccc1C(=O)NC [DTBMA, dithio-2,2′-bis(N-methylbenzamide)]
Qb (Second Component B) [1, 15]: 80
SI (synergy index) [1, 15]: 1.00
SI ([1]; E. coli 8739 - M9GY, 48 hours, BBIT + DTBMA): 1.00
Qb (Second Component B = DTBMA) ([1]; E. coli 8739 - M9GY, 48 hours, DTBMA alone (Qa 0) or in mixture with BBIT): 60
Qb (Second Component B) [2, 16]: 2000
SI (synergy index) [2, 16]: 1.00
SI ([2]; C. albicans 10231 - PDB, 24 hours, BBIT + DTBMA): 1.00
Qb (Second Component B = DTBMA) ([2]; C. albicans 10231 - PDB, 24 hours, DTBMA alone (Qa 0) or in mixture with BBIT): 2000
SI ([3]; A. niger 16404 - PDB, 7 days, BBIT + DTBMA): 1.00
Qb (Second Component B = DTBMA) ([3]; A. niger 16404 - PDB, 7 days, DTBMA alone (Qa 0) or in mixture with BBIT): 1000
Qb (Second Component B) [3, 17]: 800
SI (synergy index) [3, 17]: 1.00
